Test results reported in patent US6440389B1, “Fluorescent agents for real-time measurement of organ function” (The General Hospital Corporation, priority 2000, dated 2002).

Assay: Fluorometric analysis, excitation and emission spectra
Assay type: physicochemical
Conditions: FIG. 4
Experimental: For the synthesis of a nile blue-DTPA conjugate, 0.1 g of DTPA dianhydride (ccDPTA) was dissolved in 6 ml of dimethyl sulfoxide (DMSO) in a round bottom flask. Ninety mg of nile blue were dissolved in DMSO and 36 μL of triethyl amine were added, turning the solution purple. The nile blue solution was added drop wise to the solution of ccDTPA while stirring. The solution turned blue. Thirty-eight μL of […] (TEA) were added to the final mixture, turning the solution purple. After mixing, the mixture was heated to 60° C. and stirred for 2 hours. The reaction mixture was then loaded onto a silica gel column and eluted with acetone:ethylacetate. The fractions corresponding to the nile blue-DTPA conjugate were pooled and evaporated, yielding a magenta colored oil. The oil was rechromatographed on a second silica gel column using acetone as eluant. The nile blue-DTPA conjugated fractions were pooled and rotate-evaporated to give a magenta colored oil. […]
The only group of chelating agents known to produce highly soluble and stable lanthanide chelates are the polyamino polyacetic acid analogs. […] The simplest initial approach was to study the fluorescence characteristics of the chelate between Eu and other already commercially available polyaminopoly bis (2-aminoethyl ether) acetic acids. […]

- emission fluorescence: 695 nm
- maximal excitation: approximately 390 nm
SMILES: CC[N+](CC)=c1ccc2nc3c(cc(N)c4ccccc43)oc-2c1 [nile blue]
